# Laboratory results reported in US8431593B2, “Heteroaryl amide derivatives” (H. Lundbeck A/S, priority 2006, dated 2013).
# Molecular target: T1, P2X7 receptor (Homo sapiens, UniProt Q99572)
# T1 construct: host or cells: SH-SY5Y
# T1 sequence (Q99572 1-595): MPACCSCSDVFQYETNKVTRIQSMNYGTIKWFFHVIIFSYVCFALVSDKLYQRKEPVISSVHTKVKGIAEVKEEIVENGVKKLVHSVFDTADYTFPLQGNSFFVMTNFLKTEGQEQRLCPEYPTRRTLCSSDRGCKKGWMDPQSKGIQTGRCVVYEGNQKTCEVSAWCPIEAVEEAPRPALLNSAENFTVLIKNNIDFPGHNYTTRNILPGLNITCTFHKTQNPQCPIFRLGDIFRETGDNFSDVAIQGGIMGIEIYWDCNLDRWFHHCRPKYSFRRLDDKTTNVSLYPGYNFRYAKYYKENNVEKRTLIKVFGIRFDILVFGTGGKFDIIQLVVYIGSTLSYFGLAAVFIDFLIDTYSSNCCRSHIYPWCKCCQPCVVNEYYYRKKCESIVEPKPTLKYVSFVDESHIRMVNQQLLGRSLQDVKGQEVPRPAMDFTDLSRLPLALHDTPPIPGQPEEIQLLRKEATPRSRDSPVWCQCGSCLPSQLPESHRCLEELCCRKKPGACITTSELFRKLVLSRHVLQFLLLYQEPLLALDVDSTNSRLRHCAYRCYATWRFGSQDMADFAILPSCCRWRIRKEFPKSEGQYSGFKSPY
# Assay: P2X7 calcium mobilization assay, high throughput, antagonist activity (Example 4A)
# Assay type: cell-based
# Conditions: 50% decrease in the fluorescence response of cells exposed to 80 μM 2′(3′)-O-(4-benzoyl-benzoyl)adenosine 5′-triphosphate; Example 4A; read-out: IC50
# Outline: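 Cells plated 100,000/well the day before; after 1 h dye loading and one rinse, cells were preincubated 1 h at room temperature with test compound. Calcium mobilization then read on FLIPR^TETRA; maximum RFU corrected by subtracting mean no-agonist response and referenced to mean agonist-control maximum.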
row,SMILES,IC50 [µM]
1,"CC1(C)[C@@H]2CC[C@@H](CNC(=O)c3cccc4nc(CC(=O)N5C[C@@H]6C[C@H]5CN6)cn34)[C@H]1C2 [Compound 559, 2-{2-[(1S,4S)-2,5-diazabicyclo[2.2.1]hept-2-yl]-2-oxoethyl}-N-{[(1R,2R,5R)-6,6-dimethylbicyclo[3.1.1]hept-2-yl]methyl}imidazo[1,2-a]pyridine-5-carboxamide]",< 2
2,"CN(C(=O)Cc1cn2c(C(=O)NC[C@@H]3CC[C@@H]4C[C@H]3C4(C)C)cccc2n1)C1CCCNC1 (stereo partly drawn) [Compound 565, N-{[(1R,2R,5R)-6,6-dimethylbicyclo[3.1.1]hept-2-yl]methyl}-2-{2-[methyl(piperidin-3-yl)amino]-2-oxoethyl}imidazo[1,2-a]pyridine-5-carboxamide]",< 2
3,"COCCN(C(=O)Cc1cn2c(C(=O)NC[C@@H]3CC[C@@H]4C[C@H]3C4(C)C)cccc2n1)C1CCNCC1 [Compound 567, N-{[(1R,2R,5R)-6,6-dimethylbicyclo[3.1.1]hept-2-yl]methyl}-2-{2-[(2-methoxyethyl) (piperidin-4-yl)amino]-2-oxoethyl} imidazo[1,2-a]pyridine-5-carboxamide]",< 2
4,"CC(C)[C@H]1CNCCN1C(=O)Cc1cn2c(C(=O)NC[C@@H]3CC[C@@H]4C[C@H]3C4(C)C)cccc2n1 [Compound 569, N-{[(1R,2R,5R)-6,6-dimethylbicyclo[3.1.1]hept-2-yl]methyl}-2-{2-[(2S)-2-isopropylpiperazin-1-yl]-2-oxoethyl}imidazo[1,2-a]pyridine-5-carboxamide]",< 2
5,"CC(C)[C@@H]1CNCCN1C(=O)Cc1cn2c(C(=O)NC[C@@H]3CC[C@@H]4C[C@H]3C4(C)C)cccc2n1 [Compound 570, N-{[(1R,2R,5R)-6,6-dimethylbicyclo[3.1.1]hept-2-yl]methyl}-2-{2-[(2R)-2-isopropylpiperazin-1-yl]-2-oxoethyl}imidazo[1,2-a]pyridine-5-carboxamide]",< 2
6,"COCCCN(C(=O)Cc1cn2c(C(=O)NC[C@@H]3CC[C@@H]4C[C@H]3C4(C)C)cccc2n1)C1CCNCC1(C)C (stereo partly drawn) [Compound 572, N-{[(1R,2R,5R)-6,6-dimethylbicyclo[3.1.1]hept-2-yl]methyl}-2-{2-[(3,3-dimethylpiperidin-4-yl)(3-methoxy-propyl)amino]-2-oxoethyl} imidazo[1,2-a] pyridine-5-carboxamide]",< 2
7,"COCCN(C(=O)Cc1cn2c(C(=O)NC[C@@H]3CC[C@@H]4C[C@H]3C4(C)C)cccc2n1)C1CCNCC1(C)C (stereo partly drawn) [Compound 573, N-{[(1R,2R,5R)-6,6-dimethylbicyclo[3.1.1]hept-2-yl]methyl}-2-{2-[(3,3-dimethyl-piperidin-4-yl)(2-methoxyethyl)amino]-2-oxoethyl}imidazo [1,2-a]pyridine-5-carboxamide]",< 2
8,"CN(C)CCN(C(=O)Cc1cn2c(C(=O)NC[C@@H]3CC[C@@H]4C[C@H]3C4(C)C)cccc2n1)C1CCNCC1(C)C (stereo partly drawn) [Compound 574, 2-(2-{[2-(dimethylamino)ethyl] (3,3-dimethylpiperidin-4-yl)amino}-2-oxoethyl)-N-{[(1R,2R,5R)-6,6-dimethylbicyclo [3.1.1]hept-2-yl]methyl}imidazo[1,2-a]pyridine-5-carboxamide]",< 2
9,"CC1(C)[C@@H]2CC[C@@H](CNC(=O)c3cccc4nc(CC(=O)N5CCCC(CN)C5)cn34)[C@H]1C2 (stereo partly drawn) [Compound 578, 2-{2-[3-(aminomethyl)piperidin-1-yl]-2-oxoethyl}-N-{[(1R,2R,5R)-6,6-dimethylbicyclo[3.1.1]hept-2-yl]methyl}imidazo[1,2-a]pyridine-5-carboxamide]",< 2
10,"CC1(C)[C@@H]2CC[C@@H](CNC(=O)c3cccc4nc(CC(=O)N5CCCCC5CN)cn34)[C@H]1C2 (stereo partly drawn) [Compound 579, 2-{2-[2-(aminomethyl)piperidin-1-yl]-2-oxoethyl}-N-{[(1R,2R,5R)-6,6-dimethylbicyclo[3.1.1]hept-2-yl]methyl}imidazo[1,2-a]pyridine-5-carboxamide]",< 2
11,"CC1(C)[C@@H]2CC[C@@H](CNC(=O)c3cccc4nc(CC(=O)N5CCCC5CN)cn34)[C@H]1C2 (stereo partly drawn) [Compound 580, 2-{2-[2-(aminomethyl)pyrrolidin-1-yl]-2-oxoethyl}-N-{[(1R,2R,5R)-6,6-dimethylbicyclo[3.1.1]hept-2-yl]methyl}imidazo[1,2-a]pyridine-5-carboxamide]",< 2
12,"CC1(C)[C@@H]2CC[C@@H](CNC(=O)c3cccc4nc(CC(=O)N5CCC[C@@H]5CN)cn34)[C@H]1C2 [Compound 584, 2-{2-[(2R)-2-(aminomethyl)pyrrolidin-1-yl]-2-oxoethyl}-N-{[(1R,2R,5R)-6,6-dimethylbicyclo [3.1.1]hept-2-yl]methyl}imidazo [1,2-a]pyridine-5-carboxamide]",< 2
13,"CC1(C)[C@@H]2CC[C@@H](CNC(=O)c3cccc4nc(CC(=O)N5CCC[C@H]5CN)cn34)[C@H]1C2 [Compound 587, 2-{2-[(2S)-2-(aminomethyl)pyrrolidin-1-yl]-2-oxoethyl}-N-{[(1R,2R,5R)-6,6-dimethylbicyclo [3.1.1]hept-2-yl]methyl}imidazo[1,2-a]pyridine-5-carboxamide]",< 2
14,"CC1(C)[C@@H]2CC[C@@H](CNC(=O)c3cccc4nc(CC(=O)NCC5CCNCC5)cn34)[C@H]1C2 [Compound 589, N-{[(1R,2R,5R)-6,6-dimethylbicyclo[3.1.1]hept-2-yl]methyl}-2-{2-oxo-2-[(piperidin-4-ylmethyl)amino]ethyl} imidazo[1,2-a]pyridine-5-carboxamide]",< 2
15,"CC1(C)[C@@H]2CC[C@@H](CNC(=O)c3cccc4nc(CC(=O)NCC5CCCN5)cn34)[C@H]1C2 (stereo partly drawn) [Compound 590, N-{[(1R,2R,5R)-6,6-dimethylbicyclo[3.1.1]hept-2-yl]methyl}-2-{2-oxo-2-[(pyrrolidin-2-ylmethyl)amino]ethyl} imidazo[1,2-a]pyridine-5-carboxamide]",< 2

# Further lines, results first:
row,IC50 [µM],SMILES
1,< 2,"CC1(C)[C@@H]2CC[C@@H](CNC(=O)c3cccc4nc(CC(=O)N5CCCNCC5)cn34)[C@H]1C2 [Compound 560, 2-[2-(1,4-diazepan-1-yl)-2-oxoethyl]-N-{[(1R,2R,5R)-6,6-dimethylbicyclo[3.1.1]hept-2-yl]methyl}imidazo[1,2-a]pyridine-5-carboxamide]"
2,< 2,"C[C@@H]1CNCCN1C(=O)Cc1cn2c(C(=O)NC[C@@H]3CC[C@@H]4C[C@H]3C4(C)C)cccc2n1 [Compound 561, N-{[(1R,2R,5R)-6,6-dimethylbicyclo[3.1.1]hept-2-yl]methyl}-2-{2-[(2R)-2-methylpiperazin-1-yl]-2-oxoethyl}imidazo[1,2-a]pyridine-5-carboxamide]"
3,< 2,"CC(C)[C@H]1CN(C(=O)Cc2cn3c(C(=O)NC[C@@H]4CC[C@@H]5C[C@H]4C5(C)C)cccc3n2)CCN1 [Compound 562, N-{[(1R,2R,5R)-6,6-dimethylbicyclo[3.1.1]hept-2-yl]methyl}-2-{2-[(3S)-3-isopropylpiperazin-1-yl]-2-oxoethyl}imidazo[1,2-a]pyridine-5-carboxamide]"
4,< 2,"C[C@H]1CN(C(=O)Cc2cn3c(C(=O)NC[C@@H]4CC[C@@H]5C[C@H]4C5(C)C)cccc3n2)CCN1 [Compound 563, N-{[(1R,2R,5R)-6,6-dimethylbicyclo[3.1.1]hept-2-yl]methyl}-2-{2-[(3S)-3-methylpiperazin-1-yl]-2-oxoethyl}imidazo[1,2-a]pyridine-5-carboxamide]"
5,< 2,"C[C@@H]1CN(C(=O)Cc2cn3c(C(=O)NC[C@@H]4CC[C@@H]5C[C@H]4C5(C)C)cccc3n2)CCN1 [Compound 564, N-{[(1R,2R,5R)-6,6-dimethylbicyclo[3.1.1]hept-2-yl]methyl}-2-{2-[(3R)-3-methylpiperazin-1-yl]-2-oxoethyl}imidazo[1,2-a]pyridine-5-carboxamide]"
6,< 2,"CNC1CCN(C(=O)Cc2cn3c(C(=O)NC[C@@H]4CC[C@@H]5C[C@H]4C5(C)C)cccc3n2)C1 (stereo partly drawn) [Compound 568, N-{[(1R,2R,5R)-6,6-dimethylbicyclo[3.1.1]hept-2-yl]methyl}-2-{2-[3-(methylamino)pyrrolidin-1-yl]-2-oxoethyl}imidazo[1,2-a]pyridine-5-carboxamide]"
7,< 2,"CC(C)[C@@H]1CN(C(=O)Cc2cn3c(C(=O)NC[C@@H]4CC[C@@H]5C[C@H]4C5(C)C)cccc3n2)CCN1 [Compound 571, N-{[(1R,2R,5R)-6,6-dimethylbicyclo[3.1.1]hept-2-yl]methyl}-2-{2-[(3R)-3-isopropylpiperazin-1-yl]-2-oxoethyl}imidazo[1,2-a]pyridine-5-carboxamide]"
8,< 2,"CC1(C)[C@@H]2CC[C@@H](CNC(=O)c3cccc4nc(CC(=O)N5CCCC(N)C5)cn34)[C@H]1C2 (stereo partly drawn) [Compound 581, 2-[2-(3-aminopiperidin-1-yl)-2-oxoethyl]-N-{[(1R,2R,5R)-6,6-dimethylbicyclo[3.1.1]hept-2-yl]methyl}imidazo[1,2-a]pyridine-5-carboxamide]"
9,< 2,"CC1(C)[C@@H]2CC[C@@H](CNC(=O)c3cccc4nc(CC(=O)N5CC[C@@H](N)C5)cn34)[C@H]1C2 [Compound 588, 2-{2-[(3R)-3-aminopyrrolidin-1-yl]-2-oxoethyl}-N-{[(1R,2R,5R)-6,6-dimethylbicyclo[3.1.1]hept-2-yl]methyl}imidazo [1,2-a]pyridine-5-carboxamide]"
